Reference: ChEMBL document CHEMBL6083210, “Exploring apoptotic induction of malabaricone A in triple-negative breast cancer cells: an acylphenol phyto-entity isolated from the fruit rind of Myristica malabarica Lam” (RSC Med Chem, 2024)
Active and inactive are the calls of the source. The rule behind the calls is not given here.

Experiments:
MDA-MB-231 [1] = assay: Antiproliferative activity against human MDA-MB-231 cells assessed as reduction in cell viability incubated for 24 hrs by MTT assay; format: functional, cell-based; details: MDA-MB-231, 24 h
SK-BR-3 = assay: Antiproliferative activity against human SK-BR-3 cells assessed as reduction in cell viability incubated for 24 hrs by MTT assay; format: functional, cell-based; details: SK-BR-3, 24 h
MCF-10A = assay: Antiproliferative activity against human MCF-10A cells assessed as reduction in cell viability incubated for 24 hrs by MTT assay; format: functional, cell-based
MDA-MB-231 [2] = assay: Induction of morphological changes in human MDA-MB-231 cells assessed as decrease in cell number at 15 uM measured upto 18 hrs by acridine orange and ethidium bromide dual staining based inverted microscopic analysis; format: functional
MDA-MB-231 [3] = assay: Antiproliferative activity against human MDA-MB-231 cells assessed as reduction in cell viability at 1 to 50 uM by MTT assay; format: functional, cell-based; details: dose 1-50 µM, time 12-48 hrs
MDA-MB-231 [4] = assay: Antiproliferative activity against human MDA-MB-231 cells assessed as reduction in cell viability measured after 12 to 48 hrs by MTT assay; format: functional, cell-based; details: dose 1-50 µM, time 12-48 hrs
MDA-MB-231 [5] = assay: Induction of morphological changes in human MDA-MB-231 cells assessed as appearance of spherical shaped cell at 6 to 10 uM measured 24 hrs by EtBr-AO Live dead Assay; format: functional, cell-based; details: dose 6-10 µM
MDA-MB-231 [6] = assay: Induction of morphological changes in human MDA-MB-231 cells assessed as membrane breakage at 6 to 10 uM measured 24 hrs by EtBr-AO Live dead Assay; format: functional, cell-based; details: dose 6-10 µM
MDA-MB-231 [7] = assay: Induction of morphological changes in human MDA-MB-231 cells assessed as membrane blebbing at 6 to 10 uM measured 24 hrs by EtBr-AO Live dead Assay; format: functional, cell-based; details: dose 6-10 µM
MDA-MB-231 [8] = assay: Induction of morphological changes in human MDA-MB-231 cells assessed as leakage of intracellular components at 6 to 10 uM measured 24 hrs by EtBr-AO Live dead Assay; format: functional, cell-based; details: dose 6-10 µM
MDA-MB-231 [9] = assay: Induction of apoptosis in human MDA-MB-231 cells assessed as increase in green fluorescence incubated for 24 hrs by acridine orange and ethidium bromide dual staining based analysis; format: functional, cell-based; details: dose 6-10 µM
MDA-MB-231 [10] = assay: Induction of apoptosis in human MDA-MB-231 cells assessed as increase in green fluorescence at 6 to 10 uM by acridine orange and ethidium bromide dual staining based analysis; format: functional, cell-based; details: dose 6-10 µM, time 12-48 hrs
MDA-MB-231 [11] = assay: Induction of apoptosis in human MDA-MB-231 cells assessed as dead cells by measuring pink coloration at 6 to 10 uM incubated for 24 hrs by APO staining based analysis; format: functional, cell-based; details: dose 6-10 µM
MDA-MB-231 [12] = assay: Induction of apoptosis in human MDA-MB-231 cells assessed as viable cells at 6 uM incubated for 24 hrs by FITC annexin V staining based analysis (reference value: 90.5%); format: functional; details: read-out: Activity
MDA-MB-231 [13] = assay: Induction of apoptosis in human MDA-MB-231 cells assessed as viable cells at 8 uM incubated for 24 hrs by FITC annexin V staining based analysis (reference value: 90.5%); format: functional; details: read-out: Activity
MDA-MB-231 [14] = assay: Induction of apoptosis in human MDA-MB-231 cells assessed as viable cells at 10 uM incubated for 24 hrs by FITC annexin V staining based analysis (reference value: 90.5%); format: functional; details: read-out: Activity
MDA-MB-231 [15] = assay: Induction of apoptosis in human MDA-MB-231 cells assessed as early apoptotic cells at 6 uM incubated for 24 hrs by FITC annexin V staining based analysis (reference value: 1.4%); format: functional
MDA-MB-231 [16] = assay: Induction of apoptosis in human MDA-MB-231 cells assessed as early apoptotic cells at 8 uM incubated for 24 hrs by FITC annexin V staining based analysis (reference value: 1.4%); format: functional
MDA-MB-231 [17] = assay: Induction of apoptosis in human MDA-MB-231 cells assessed as early apoptotic cells at 10 uM incubated for 24 hrs by FITC annexin V staining based analysis (reference value: 1.4%); format: functional
MDA-MB-231 [18] = assay: Induction of apoptosis in human MDA-MB-231 cells assessed as late apoptotic cells at 6 uM incubated for 24 hrs by FITC annexin V staining based analysis (reference value: 7.3%); format: functional
MDA-MB-231 [19] = assay: Induction of apoptosis in human MDA-MB-231 cells assessed as late apoptotic cells at 8 uM incubated for 24 hrs by FITC annexin V staining based analysis (reference value: 7.3%); format: functional
MDA-MB-231 [20] = assay: Induction of apoptosis in human MDA-MB-231 cells assessed as late apoptotic cells at 10 uM incubated for 24 hrs by FITC annexin V staining based analysis (reference value: 7.3%); format: functional
MDA-MB-231 [21] = assay: Induction of apoptosis in human MDA-MB-231 cells assessed as necrotic cells at 6 uM incubated for 24 hrs by FITC annexin V staining based analysis (reference value: 0.8%); format: functional
MDA-MB-231 [22] = assay: Induction of apoptosis in human MDA-MB-231 cells assessed as necrotic cells at 8 uM incubated for 24 hrs by FITC annexin V staining based analysis (reference value: 0.8%); format: functional
MDA-MB-231 [23] = assay: Induction of apoptosis in human MDA-MB-231 cells assessed as necrotic cells at 10 uM incubated for 24 hrs by FITC annexin V staining based analysis (reference value: 0.8%); format: functional
MDA-MB-231 [24] = assay: Induction of apoptosis in human MDA-MB-231 cells assessed as fold increase in caspase 3 level at 8 uM by fluorometric assay; format: functional
MDA-MB-231 [25] = assay: Induction of apoptosis in human MDA-MB-231 cells assessed as fold increase in caspase 9 level at 8 uM by fluorometric assay; format: functional
MDA-MB-231 [26] = assay: Induction of apoptosis in human MDA-MB-231 cells assessed as fold increase in caspase 8 level at 8 uM incubated for 24 hrs by fluorometric assay; format: functional

Compound: O=C(CCCCCCCCc1ccccc1)c1c(O)cccc1O [MALABARICONE A]
- IC50 (MDA-MB-231 [1]): 8.81 µM
- IC50 (SK-BR-3): 8.39 µM
- IC50 (MCF-10A): 68.9 µM
- Activity (MDA-MB-231 [2]): Active
- Activity (MDA-MB-231 [3]): Time-dependent-effect
- Activity (MDA-MB-231 [4]): Dose-dependent-effect
- Activity (MDA-MB-231 [5]): Active
- Activity (MDA-MB-231 [6]): Active
- Activity (MDA-MB-231 [7]): Active
- Activity (MDA-MB-231 [8]): Active
- Activity (MDA-MB-231 [9]): Dose-dependent-effect
- Activity (MDA-MB-231 [10]): Time-dependent-effect
- Activity (MDA-MB-231 [11]): Active
- viability at 6 µM (MDA-MB-231 [12]): 68.5%
- viability at 8 µM (MDA-MB-231 [13]): 50.2%
- viability at 10 µM (MDA-MB-231 [14]): 32.4%
- Activity (MDA-MB-231 [15]): 7.3%
- Activity (MDA-MB-231 [16]): 6.45%
- Activity (MDA-MB-231 [17]): 4.25%
- Activity (MDA-MB-231 [18]): 20.4%
- Activity (MDA-MB-231 [19]): 35.25%
- Activity (MDA-MB-231 [20]): 50.65%
- Activity (MDA-MB-231 [21]): 3.85%
- Activity (MDA-MB-231 [22]): 8.05%
- Activity (MDA-MB-231 [23]): 12.7%
- fold change (FC) (MDA-MB-231 [24]): 8.9
- fold change (FC) (MDA-MB-231 [25]): 3.1
- fold change (FC) (MDA-MB-231 [26]): 2.4
